From US8952024B2, “Herbicidal pyrimidone derivatives” (E I du Pont de Nemours and Company, priority 2009, dated 2015)

Tests used:
Format in all cases: in vivo
[1] = tested on: velvetleaf (Abutilon theophrasti); assay: Test A pre-/postemergence plant response; details: for Velvetleaf plant response rating: visual injury, 0 to 100 scale (0 no effect, 100 complete control), approx. ten days
In short: (§1)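 Seeds planted in loam soil/sand blend; test chemicals in non-phytotoxic solvent mixture with surfactant applied as directed soil spray preemergence and, concurrently, postemergence to plants 2–10 cm tall at one- to two-leaf stage. Greenhouse ~10 days; visual injury vs untreated controls, 0 (no effect) to 100 (complete control).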

[2] = tested on: barnyardgrass (Echinochloa crus-galli); assay: Test A pre-/postemergence plant response; details: for Barnyardgrass plant response rating: visual injury, 0 to 100 scale (0 no effect, 100 complete control), approx. ten days
In short: as §1

[3] = tested on: large crabgrass (Digitaria sanguinalis); assay: Test A pre-/postemergence plant response; details: for Crabgrass, Large plant response rating: visual injury, 0 to 100 scale (0 no effect, 100 complete control), approx. ten days
In short: as §1

[4] = tested on: giant foxtail (Setaria faberii); assay: Test A pre-/postemergence plant response; details: for Foxtail, Giant plant response rating: visual injury, 0 to 100 scale (0 no effect, 100 complete control), approx. ten days
In short: as §1

[5] = tested on: corn (Zea mays); assay: Test A pre-/postemergence plant response; details: for Corn plant response rating: visual injury, 0 to 100 scale (0 no effect, 100 complete control), approx. ten days
In short: as §1

[6] = tested on: morningglory (Ipomoea spp.); assay: Test A pre-/postemergence plant response; details: for Morningglory plant response rating: visual injury, 0 to 100 scale (0 no effect, 100 complete control), approx. ten days
In short: as §1

[7] = tested on: wheat (Triticum aestivum); assay: Test A pre-/postemergence plant response; details: for Wheat plant response rating: visual injury, 0 to 100 scale (0 no effect, 100 complete control), approx. ten days
In short: as §1

[8] = tested on: pigweed (Amaranthus retroflexus); assay: Test A pre-/postemergence plant response; details: for Pigweed plant response rating: visual injury, 0 to 100 scale (0 no effect, 100 complete control), approx. ten days
In short: as §1

[9] = tested on: barnyardgrass (Echinochloa crus-galli); assay: Test B flooded paddy test; details: for Plant response rating, Flood, Barnyardgrass: 250 g ai/ha, flooded paddy test, visual rating on 0 to 100 scale (0 no effect, 100 complete control) after 13 to 15 days; for Plant response rating, Barnyardgrass: Flood (flooded paddy test), 13 to 15 days; for Barnyardgrass plant response rating: Flood, 31 g ai/ha, scale 0 to 100 (0 no effect, 100 complete control)
In short: (§2)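 Seedlings reaching 2 leaves are flooded 3 cm deep; test material is delivered to that water, which stays at the same depth. Plants remain in a greenhouse 13–15 days and are then scored by eye versus controls from 0 to 100.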

[10] = tested on: rice (Oryza sativa); assay: Test B flooded paddy test; details: for Plant response rating, Flood, Rice: 250 g ai/ha, flooded paddy test, visual rating on 0 to 100 scale (0 no effect, 100 complete control) after 13 to 15 days; for Plant response rating, Rice: Flood (flooded paddy test), 13 to 15 days; for Rice plant response rating: Flood, 31 g ai/ha, scale 0 to 100 (0 no effect, 100 complete control)
In short: as §2

[11] = tested on: ducksalad (Heteranthera limosa); assay: Test B flooded paddy test; details: for Plant response rating, Flood, Ducksalad: 250 g ai/ha, flooded paddy test, visual rating on 0 to 100 scale (0 no effect, 100 complete control) after 13 to 15 days; for Plant response rating, Ducksalad: Flood (flooded paddy test), 13 to 15 days; for Ducksalad plant response rating: Flood, 31 g ai/ha, scale 0 to 100 (0 no effect, 100 complete control)
In short: as §2

[12] = tested on: umbrella sedge (Cyperus difformis); assay: Test B flooded paddy test; details: for Plant response rating, Flood, Sedge, Umbrella: 250 g ai/ha, flooded paddy test, visual rating on 0 to 100 scale (0 no effect, 100 complete control) after 13 to 15 days; for Plant response rating, Sedge, Umbrella: Flood (flooded paddy test), 13 to 15 days; for Sedge, Umbrella plant response rating: Flood, 31 g ai/ha, scale 0 to 100 (0 no effect, 100 complete control)
In short: as §2

[13] = Postemergence, 125 g ai/ha, 0 to 100 scale where 0 is no effect and 100 is complete control
[14] = Preemergence, 125 g ai/ha, 0 to 100 scale, 0 = no effect, 100 = complete control
[15] = Preemergence, 500 g ai/ha, 0 to 100 scale, 0 = no effect, 100 = complete control
[16] = 62 g ai/ha, scale of 0 to 100 where 0 is no effect and 100 is complete control
[17] = 125 g ai/ha, scale 0 to 100, 0 is no effect, 100 is complete control

## CCc1ccc(-n2c(-c3cc(F)cc(F)c3)ncc(C(=O)C3=C(O)CCCC3=O)c2=O)cc1 [Compound 158]
[1]; [13]
  Plant response rating, Velvetleaf: 100
[1]; Postemergence, 500 g ai/ha
  Velvetleaf plant response rating: 100
[1]; [14]
  Plant response rating, Velvetleaf: 50
[1]; [15]
  Plant response rating, Velvetleaf: 80
[2]; [13]
  Plant response rating, Barnyardgrass: 90
[2]; Postemergence, 500 g ai/ha
  Barnyardgrass plant response rating: 90
[2]; [14]
  Plant response rating, Barnyardgrass: 20
[2]; [15]
  Plant response rating, Barnyardgrass: 80
[3]; [13]
  Plant response rating, Crabgrass, Large: 70
[3]; Postemergence, 500 g ai/ha
  Crabgrass, Large plant response rating: 100
[3]; [14]
  Plant response rating, Crabgrass, Large: 70
[3]; [15]
  Plant response rating, Crabgrass, Large: 100
[4]; [13]
  Plant response rating, Foxtail, Giant: 70
[4]; Postemergence, 500 g ai/ha
  Foxtail, Giant plant response rating: 90
[4]; [14]
  Plant response rating, Foxtail, Giant: 10
[4]; [15]
  Plant response rating, Foxtail, Giant: 80
[5]; [13]
  Plant response rating, Corn: 10
[5]; Postemergence, 500 g ai/ha
  Corn plant response rating: 50
[5]; [14]
  Plant response rating, Corn: 0
[5]; [15]
  Plant response rating, Corn: 20
[6]; [13]
  Plant response rating, Morningglory: 70
[6]; Postemergence, 500 g ai/ha
  Morningglory plant response rating: 100
[6]; [14]
  Plant response rating, Morningglory: 0
[6]; [15]
  Plant response rating, Morningglory: 80
[7]; [13]
  Plant response rating, Wheat: 0
[7]; Postemergence, 500 g ai/ha
  Wheat plant response rating: 50
[7]; [14]
  Plant response rating, Wheat: 0
[7]; [15]
  Plant response rating, Wheat: 10
[8]; [13]
  Plant response rating, Pigweed: 100
[8]; Postemergence, 500 g ai/ha
  Pigweed plant response rating: 100
[8]; [14]
  Plant response rating, Pigweed: 100
[8]; [15]
  Plant response rating, Pigweed: 100
[9]
  Plant response rating, Flood, Barnyardgrass: 60
  Barnyardgrass plant response rating: 20
[9]; [16]
  Plant response rating, Barnyardgrass: 20
[9]; [17]
  Plant response rating, Barnyardgrass: 20
[10]
  Plant response rating, Flood, Rice: 85
  Rice plant response rating: 20
[10]; [16]
  Plant response rating, Rice: 30
[10]; [17]
  Plant response rating, Rice: 40
[11]
  Plant response rating, Flood, Ducksalad: 100
  Ducksalad plant response rating: 50
[11]; [16]
  Plant response rating, Ducksalad: 75
[11]; [17]
  Plant response rating, Ducksalad: 100
[12]
  Plant response rating, Flood, Sedge, Umbrella: 100
  Sedge, Umbrella plant response rating: 70
[12]; [16]
  Plant response rating, Sedge, Umbrella: 85
[12]; [17]
  Plant response rating, Sedge, Umbrella: 100

## O=C1CCCC(O)=C1C(=O)c1cnc(-c2cc(F)cc(F)c2)n(-c2ccccc2)c1=O [Compound 161]
[1]; [13]
  Plant response rating, Velvetleaf: 100
[1]; Postemergence, 500 g ai/ha
  Velvetleaf plant response rating: 100
[1]; [14]
  Plant response rating, Velvetleaf: 70
[1]; [15]
  Plant response rating, Velvetleaf: 90
[2]; [13]
  Plant response rating, Barnyardgrass: 30
[2]; Postemergence, 500 g ai/ha
  Barnyardgrass plant response rating: 90
[2]; [14]
  Plant response rating, Barnyardgrass: 10
[2]; [15]
  Plant response rating, Barnyardgrass: 90
[3]; [13]
  Plant response rating, Crabgrass, Large: 60
[3]; Postemergence, 500 g ai/ha
  Crabgrass, Large plant response rating: 90
[3]; [14]
  Plant response rating, Crabgrass, Large: 50
[3]; [15]
  Plant response rating, Crabgrass, Large: 90
[4]; [13]
  Plant response rating, Foxtail, Giant: 40
[4]; Postemergence, 500 g ai/ha
  Foxtail, Giant plant response rating: 90
[4]; [14]
  Plant response rating, Foxtail, Giant: 50
[4]; [15]
  Plant response rating, Foxtail, Giant: 80
[5]; [13]
  Plant response rating, Corn: 0
[5]; Postemergence, 500 g ai/ha
  Corn plant response rating: 10
[5]; [14]
  Plant response rating, Corn: 0
[5]; [15]
  Plant response rating, Corn: 0
[6]; [13]
  Plant response rating, Morningglory: 60
[6]; Postemergence, 500 g ai/ha
  Morningglory plant response rating: 100
[6]; [14]
  Plant response rating, Morningglory: 0
[6]; [15]
  Plant response rating, Morningglory: 40
[7]; [13]
  Plant response rating, Wheat: 0
[7]; Postemergence, 500 g ai/ha
  Wheat plant response rating: 0
[7]; [14]
  Plant response rating, Wheat: 0
[7]; [15]
  Plant response rating, Wheat: 0
[8]; [13]
  Plant response rating, Pigweed: 80
[8]; Postemergence, 500 g ai/ha
  Pigweed plant response rating: 100
[8]; [14]
  Plant response rating, Pigweed: 90
[8]; [15]
  Plant response rating, Pigweed: 100
[9]
  Plant response rating, Flood, Barnyardgrass: 30
  Barnyardgrass plant response rating: 0
[9]; [16]
  Plant response rating, Barnyardgrass: 0
[9]; [17]
  Plant response rating, Barnyardgrass: 0
[10]
  Plant response rating, Flood, Rice: 50
  Rice plant response rating: 25
[10]; [16]
  Plant response rating, Rice: 50
[10]; [17]
  Plant response rating, Rice: 45
[11]
  Plant response rating, Flood, Ducksalad: 80
  Ducksalad plant response rating: 0
[11]; [16]
  Plant response rating, Ducksalad: 0
[11]; [17]
  Plant response rating, Ducksalad: 0
[12]
  Plant response rating, Flood, Sedge, Umbrella: 60
  Sedge, Umbrella plant response rating: 0
[12]; [16]
  Plant response rating, Sedge, Umbrella: 0
[12]; [17]
  Plant response rating, Sedge, Umbrella: 0
